Source: patent US20190225650A1, “PEPTIDOMIMETIC MACROCYCLES AND USE THEREOF IN REGULATING HIF1ALPHA” (AILERON THERAPEUTICS, INC., priority 2013, published 2019)
Bridge positions count the residues as written; N and C are the ends. Square brackets hold non-standard residues; d marks the D form. Peptide text beside a SMILES is read from it. R8 = C=CCCCCCC[C@@](C)(N)C(=O)O; S5 = C=CCCC[C@](C)(N)C(=O)O; Nle = CCCC[C@H](N)C(=O)O

Assays:
[1] = target: T1, flag-tagged HIF1α (AA 786-826) / His6-tagged p300 (AA 323-423) complex (Homo sapiens, UniProt Q09472); experiment: HIF1α p300 displacement assay (TR FRET, +CHAPS); assay type: binding; conditions: read-out: IC50 (nM) (HIF1α_p300 Displacement + CHAPS)
T1 construct: His6-tagged p300 (AA 323-423); made in house; host or cells: E. coli (pETDuet vector)
T1 sequence (Q09472 323-423, one chain of several): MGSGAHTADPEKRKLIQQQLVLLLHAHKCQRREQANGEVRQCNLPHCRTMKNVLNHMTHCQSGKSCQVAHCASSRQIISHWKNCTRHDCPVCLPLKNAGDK
How it was run: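 The co-expressed flag-HIF1α (786-826)/His6-p300 (323-423) complex, purified from E. coli with 0.1 mM ZnSO4, was used at 300 nM final with competitor peptides for 1 h at room temperature. Buffer was 150 mM NaCl, 20 mM HEPES pH 7.4, 7.5 mM CHAPS and 1 mM DTT. Anti-Flag-K (0.5 μM) and anti-His-D2 (4 nM) were then added for 2 h, and IC50s were fitted from the TR-FRET ratio.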

HRE-bla ME-180 cells [2] = experiment: Reporter gene assay (HRE-bla ME-180 HIF reporter, GeneBLAzer); assay type: cell-based, human; conditions: for EC50: 24 hour normoxia
How it was run: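 A FRET β-lactamase readout of HIF transcription was used. After compound treatment in 0.3% DMSO/media under normoxic conditions, 20 μl of 6× LiveBLAzer-FRET B/G (CCF4-AM) substrate was added. Plates sat 3 hr at room temperature in the dark and were read at 409 Ex/460Em and 409Ex/530Em on a Synergy 2. Inhibition was compared against DMSO vehicle controls, with chetomin as positive control.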

HRE-bla ME-180 cells [3] = experiment: Cell proliferation assay (viability, MTT, 1% FBS); assay type: cell-based, human
How it was run: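 ME-180 cells (2×10^4/well) in Opti-MEM with 1% FBS were pretreated 16 h under normoxia (21% O2), vehicle 0.5% DMSO final. Incubation then continued under normoxia or hypoxia (1% O2); viable cells quantified by MTT-type CellTiter 96 assay.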

| SMILES | IC50 [1] | 18 h Avg % max inhibition at top conc (HIF Rptr-24 hrs normoxia) (μM) (HRE-bla ME-180 cells [2]) | EC50 (HRE-bla ME-180 cells [2]) | Viability 1% FBS AVG (MTT V3-24 hr Normoxia) (μM) (HRE-bla ME-180 cells [3]) |
| --- | --- | --- | --- | --- |
| CCCC[C@H](NC(=O)[C@H](CCC(=O)O)NC(=O)[C@]1(C)CCCC=CCCCCCC[C@@](C)(NC(=O)[C@H](CCC(=O)O)NC(=O)[C@H](CC(=O)O)NC(=O)[C@@H](NC(=O)[C@H](CC(N)=O)NC(=O)[C@@H](NC(=O)[C@H](CCC(N)=O)NC(=O)[C@]2(C)CCCC=CCCC[C@](C)(NC(=O)[C@H](CC(C)C)NC(=O)[C@H](CCC(=O)O)NC(=O)[C@H](C)NC(=O)CNC(=O)[C@H](CCC(N)=O)NC(=O)[C@H](CC(C)C)NC(=O)[C@H](CC(C)C)NC(C)=O)C(=O)N[C@@H](CCCNC(=N)N)C(=O)N[C@@H](C)C(=O)N[C@@H](CC(C)C)C(=O)N2)C(C)C)[C@@H](C)CC)C(=O)N[C@@H](C(C)C)C(=O)N[C@@H](CC(C)C)C(=O)N[C@@H](CCCC)C(=O)N[C@@H](CO)C(=O)N[C@@H](CC(C)C)C(=O)N[C@@H](C(C)C)C(=O)N1)C(N)=O [SP-360] (Ac-LLQGAEL[S5]RAL[S5]QVNIDE[R8]VL[Nle]SLV[S5]E[Nle]-NH2; staple 8-12, 19-26) | 200 to 400 nM | ++ (≤10 but <25: ++) | > 30 µM | ++++ (≥30: ++++) |
| CC[C@H](C)[C@H](NC(=O)[C@H](Cc1ccccc1)NC(C)=O)C(=O)N[C@@H](CC(=O)O)C(=O)N[C@@H](CCC(=O)O)C(=O)N[C@@]1(C)CCCC=CCCC[C@@](C)(C(=O)N[C@@H](CC(C)C)C(=O)N[C@H](C(=O)N[C@H](C(=O)N[C@@H](CCC(=O)O)C(=O)N[C@@H](CCSC)C(=O)NCC(=O)N[C@@H](CC(C)C)C(=O)N[C@@H](CC(=O)O)C(=O)N[C@@H](CCCNC(=N)N)C(=O)N[C@H](C(=O)N[C@@H](CCCCN)C(=O)N[C@@H](CCC(=O)O)C(=O)N[C@@H](CC(C)C)C(=O)N2CCC[C@H]2C(=O)N[C@@H](CCC(=O)O)C(=O)N[C@@H](CC(C)C)C(=O)N[C@@H](Cc2c[nH]c3ccccc23)C(=O)N[C@@H](CC(C)C)C(N)=O)[C@@H](C)CC)[C@@H](C)CC)C(C)C)NC(=O)[C@H](CCSC)NC(=O)[C@H](CC(C)C)NC(=O)[C@H](C(C)C)NC1=O [SP-104] (Ac-FIDE[S5]VLM[S5]LVIEMGLDRIKELPELWL-NH2; staple 5-9) | 200 to 400 nM | ++++ (≥50: ++++) | 5 to 15 µM | ++++ (≥30: ++++) |
| CC[C@H](C)[C@H](NC(=O)[C@H](CCCNC(=N)N)NC(=O)[C@H](CC(=O)O)NC(=O)[C@H](CC(C)C)NC(=O)[C@H](C)NC(=O)[C@H](CCSC)NC(=O)[C@]1(C)CCCC=CCCC[C@](C)(NC(=O)[C@H](CCSC)NC(=O)[C@H](CC(C)C)NC(=O)[C@@H](NC(=O)[C@H](Cc2c[nH]cn2)NC(=O)[C@H](CCC(=O)O)NC(=O)[C@H](CC(=O)O)NC(=O)[C@@H](NC(=O)[C@H](Cc2ccccc2)NC(C)=O)[C@@H](C)CC)C(C)C)C(=O)N[C@@H](CC(C)C)C(=O)N[C@@H](C(C)C)C(=O)N[C@@H]([C@@H](C)CC)C(=O)N1)C(N)=O [SP-284] (Ac-FIDEHVLM[S5]LVI[S5]MALDRI-NH2; staple 9-13) | 400 to 700 nM | +++ (≤25 but <50: +++) | 5 to 15 µM | ++++ (≥30: ++++) |
| CCCC[C@H](NC(=O)[C@]1(C)CCCC=CCCCCCC[C@@](C)(NC(=O)[C@H](CCC(=O)O)NC(=O)[C@H](CCC(=O)O)NC(=O)[C@H](CC(=O)O)NC(=O)[C@@H](NC(=O)[C@H](CC(N)=O)NC(=O)[C@@H](NC(=O)[C@H](CCC(N)=O)NC(=O)[C@H](CC(=O)O)NC(=O)[C@H](CC(C)C)NC(=O)[C@H](C)NC(=O)[C@H](CCCNC(=N)N)NC(=O)[C@H](CC(C)C)NC(=O)[C@H](CC(C)C)NC(=O)[C@H](CCC(=O)O)NC(=O)[C@H](CCC(=O)O)NC(=O)CNC(=O)[C@H](CCC(N)=O)NC(=O)[C@H](CC(C)C)NC(=O)[C@H](CC(C)C)NC(C)=O)C(C)C)[C@@H](C)CC)C(=O)N[C@@H](CC(C)C)C(=O)N[C@@H](CCCC)C(=O)N[C@@H](CO)C(=O)N[C@@H](CC(C)C)C(=O)N[C@@H](C(C)C)C(=O)N[C@@H]([C@@H](C)CC)C(=O)N1)C(N)=O [SP-337] (Ac-LLQGEELLRALDQVNIDEE[R8]L[Nle]SLVI[S5][Nle]-NH2; staple 20-27) | 400 to 700 nM | + (<10: +) | > 30 µM | ++++ (≥30: ++++) |
| CCCC[C@H](NC(=O)[C@H](CCC(=O)O)NC(=O)[C@@H](NC(=O)[C@@H](NC(=O)[C@H](CC(C)C)NC(=O)[C@]1(C)CCCC=CCCC[C@](C)(NC(=O)[C@H](C)NC(=O)[C@H](CC(=O)O)NC(=O)[C@@H](NC(=O)[C@H](Cc2ccccc2)NC(C)=O)[C@@H](C)CC)C(=O)N[C@@H]([C@@H](C)O)C(=O)N[C@@H](CC(C)C)C(=O)N[C@@H](CCCC)C(=O)N1)C(C)C)[C@@H](C)CC)C(=O)N[C@@H](C)C(=O)N[C@@H](CC(C)C)C(N)=O [SP-149] (Ac-FIDA[S5]TL[Nle][S5]LVIE[Nle]AL-NH2; staple 5-9) | 400 to 700 nM | ++++ (≥50: ++++) | 5 to 15 µM | + (<5: +) |
| CCCC[C@H](NC(=O)[C@H](CCC(=O)O)NC(=O)[C@]1(C)CCCC=CCCCCCC[C@@](C)(NC(=O)[C@H](CCC(=O)O)NC(=O)[C@H](C)NC(=O)[C@H](C)NC(=O)[C@H](C)NC(=O)[C@H](C)NC(=O)[C@H](CCC(N)=O)NC(=O)[C@]2(C)CCCC=CCCC[C@](C)(NC(=O)[C@H](CC(C)C)NC(=O)[C@H](CCC(=O)O)NC(=O)[C@H](CCC(=O)O)NC(=O)CNC(=O)[C@H](CCC(N)=O)NC(=O)[C@H](CC(C)C)NC(=O)[C@H](CC(C)C)NC(C)=O)C(=O)N[C@@H](CCCNC(=N)N)C(=O)N[C@@H](C)C(=O)N[C@@H](CC(C)C)C(=O)N2)C(=O)N[C@@H](C(C)C)C(=O)N[C@@H](CC(C)C)C(=O)N[C@@H](CCCC)C(=O)N[C@@H](CO)C(=O)N[C@@H](CC(C)C)C(=O)N[C@@H](C(C)C)C(=O)N1)C(N)=O [SP-359] (Ac-LLQGEEL[S5]RAL[S5]QAAAAE[R8]VL[Nle]SLV[S5]E[Nle]-NH2; staple 8-12, 19-26) | 200 to 400 nM | +++ (≤25 but <50: +++) | > 30 µM | ++++ (≥30: ++++) |
| CCCC[C@H](NC(=O)[C@@]1(C)CCCC=CCCCC2(CCCC=CCCC[C@](C)(NC(=O)[C@H](CCC(=O)O)NC(=O)[C@H](CC(=O)O)NC(=O)[C@@H](NC(=O)[C@H](Cc3ccccc3)NC(C)=O)[C@@H](C)CC)C(=O)N[C@@H](C(C)C)C(=O)N[C@@H](CC(C)C)C(=O)N[C@@H](CCC(=O)O)C(=O)N2)C(=O)N[C@@H](CC(C)C)C(=O)N[C@@H](C(C)C)C(=O)N[C@@H]([C@@H](C)CC)C(=O)N1)C(=O)N[C@@H](C)C(=O)N[C@@H](CC(C)C)C(N)=O (stereo partly drawn) [SP-205] | 200 to 400 nM | + (<10: +) | > 30 µM | ++++ (≥30: ++++) |
| CC[C@H](C)[C@H](NC(=O)[C@H](CC(N)=O)NC(=O)[C@@H](NC(=O)[C@H](CCC(N)=O)NC(=O)[C@H](CC(=O)O)NC(=O)[C@H](CC(C)C)NC(=O)[C@H](C)NC(=O)[C@H](CCCNC(=N)N)NC(=O)[C@H](CC(C)C)NC(=O)[C@H](CC(C)C)NC(=O)[C@H](CCC(=O)O)NC(=O)[C@H](CCC(=O)O)NC(=O)CNC(=O)[C@H](CCC(N)=O)NC(=O)[C@H](CC(C)C)NC(=O)[C@H](CC(C)C)NC(C)=O)C(C)C)C(=O)N[C@@H](CC(=O)O)C(=O)N[C@@H](CCC(=O)O)C(=O)N[C@]1(C)CCCCCCC=CCCC[C@@](C)(C(=O)N[C@@H](CCC(=O)O)C(=O)N[C@@H](CCSC)C(N)=O)NC(=O)[C@H](C(C)C)NC(=O)[C@H](CC(C)C)NC(=O)[C@H](CO)NC(=O)[C@H](CCSC)NC(=O)[C@H](CC(C)C)NC(=O)[C@H](C(C)C)NC1=O [SP-320] (Ac-LLQGEELLRALDQVNIDE[R8]VLMSLV[S5]EM-NH2; staple 19-26) | 200 to 400 nM | + (<10: +) | > 30 µM | ++++ (≥30: ++++) |
| CC[C@H](C)[C@H](NC(=O)[C@H](Cc1ccccc1)NC(C)=O)C(=O)N[C@@H](CO)C(=O)N[C@@H](CCC(=O)O)C(=O)N[C@@H](CCC(=O)O)C(=O)N[C@H](C(=O)N[C@@H](CC(C)C)C(=O)N[C@@H](CCSC)C(=O)N[C@@]1(C)CCCC=CCCC[C@@](C)(C(=O)N[C@@H](CCSC)C(=O)N[C@@H](C)C(=O)N[C@@H](CC(C)C)C(N)=O)NC(=O)[C@H]([C@@H](C)CC)NC(=O)[C@H](C(C)C)NC(=O)[C@H](CC(C)C)NC1=O)C(C)C [SP-230] (Ac-FISEEVLM[S5]LVI[S5]MAL-NH2; staple 9-13) | 400 to 700 nM | + (<10: +) | > 30 µM | ++++ (≥30: ++++) |
